Test results from patent US8999960B2, “Oxidized thiophospholipid compounds and uses thereof” (Vascular Biogenics Ltd., priority 2008, dated 2015).
Where “and” joins values, the source holds several entries; their conditions need not be identical. Equal entries are not always repeated.

How the values were obtained:
[1] = test system: Thioglycollate-elicited mouse peritoneal macrophages; assay: In vitro toxicity assay (crystal violet staining, cell numbers); format: cell-based; settings: for Macrophage survival rate: 24 hours incubation, normalized to vehicle, mean ± SD, one of three experiments; for LD50: mouse peritoneal macrophages, 24 hours
Method: Thioglycollate-elicited mouse peritoneal macrophages were washed, counted and seeded (5×10^5 cells per well in 24-well plates) in triplicate wells in medium containing RPMI-1640, L-glutamine, 10% fetal calf serum (FCS) and antibiotics (penicillin/streptomycin). After a recovery period of 24 hours, the tested compound (or controls) was added to the cell medium at doses of 2, 10, 20, 50, 100 or 150 μg/ml, keeping the added volume equal in all treatments by complementing the volume with solvent.
Following addition of the compounds, the cells were incubated for an additional 24 hours, after which the cells were washed, fixed with a solution of 10% methanol/10% acetic acid and stained with crystal violet (0.4% in 20% ethanol). Cell numbers were measured by determining optical density at 595 nm. Cells incubated with vehicle (PBS with 1% ethanol) were used as a control, to which cell numbers in treated samples were normalized. Each experiment was performed three times.

[2] = test system: phosphotyrosine (p-Tyr) in thioglycollate stimulated mouse macrophages; assay: Tyrosine phosphorylation assay (Western blot, anti-phosphotyrosine antibody); format: cell-based; settings: 20 μg/ml, 10 minutes, Western blot (FIG. 1)
Method: Thioglycollate stimulated mouse macrophages were treated for 10 minutes with 20 μg/ml of the tested compound in phosphate buffered saline (PBS) with 1% ethanol. Treatment with either 20 μg/ml of phosphatidylcholine or solvent (PBS with 1% ethanol) was used as a negative control. Treatment with 20 μg/ml CI-201 (1-hexadecyl-2-(4′-carboxy)butyl-sn-glycero-3-phosphothiocholine) was used as a positive control.
Proteins with phosphorylated tyrosine were then observed by Western blot, using a monoclonal anti-phosphotyrosine antibody. Western blotting for ERK1/2 was performed as a control for protein loading.

[3] = test system: Thioglycollate-elicited mouse peritoneal macrophages; assay: In vitro toxicity assay (crystal violet staining, cell numbers); format: cell-based; settings: 1, 2.5, 5, 10 or 20 μg/ml
[4] = test system: IL12/23p40 production by peptidoglycan-activated BMDCs; assay: In vitro IL12/23p40 assay (ELISA); format: cell-based, mouse; settings: 1 to 20 μg/ml added for 1 hour, then 24 hours with 10 μg/ml peptidoglycan (FIG. 2)
Method: Bone marrow derived cells (BMDCs) were obtained from the femur and tibia of female C57BL mice. Bone-marrow was flushed out femur and tibia with cold RPMI-1640. A cell suspension was prepared, and erythrocytes were removed using red blood cell (RBC) lysis buffer. […] Cells were then washed, resuspended in the same buffer, and depleted from B and T cells on a Midi-Macs separation unit through a LD or LS column (Miltenyi Biotech). The cells were prepared freshly for each experiment.
The depleted bone marrow cells were counted, washed and seeded at a concentration of 10^6 cells/ml in medium containing RPMI-1640, L-glutamine, β-mercaptoethanol, 10% fetal calf serum (FCS), antibiotics (penicillin/streptomycin) and 20 ng/ml of mouse GM-CSF (granulocyte-macrophage colony-stimulating factor). Medium was replaced every other day. On days 5-6 post culturing, cells were collected, counted and seeded at a concentration of 10^6 cells/ml in the above medium. CI-211 was then added for 1 hour. The cells were activated for IL12/23p40 production by incubation for 24 hours with 10 μg/ml peptidoglycan (PGN). Cytokine production from the supernatant was measured by ELISA. Activated cells without CI-211 were used as the control.

`CCCCCCCCCCCCCCCCOCC(COP(O)(=S)OCCN)OCCCCC(=O)O` (stereo not drawn) [CI-212, 1-hexadecyl-2-(4-carboxy)butyl-sn-glycero-3-O-thiophosphorylethanolamine] was tested, and the Macrophage survival rate ([1]; 2 μg/ml) was 98.7 ± 10.3% and 77.5 ± 5.5% and 80.8 ± 31%, the Macrophage survival rate ([1]; 20 μg/ml) was 90.6 ± 21.4% and 75.6 ± 9.5% and 97.5 ± 36.4% and the Macrophage survival rate ([1]; 50 μg/ml) was 71.4 ± 11.4% and 55.1 ± 18.9% and 97.1 ± 48.1%. For the same molecule, the LD50 [1] was “above 50 μg/ml and > 90 μM” and the tyrosine phosphorylation levels [2] was “reduced”.
`CCCCCCCCCCCCCCCCOC[C@H](COP(=O)([O-])OCC[N+](C)(C)C)OCCCCC(=O)O` [CI-201, 1-hexadecyl 2 (4 carboxy)butyl-sn-glycero-3-phosphocholine, reference compound] was tested, and the tyrosine phosphorylation levels [2] was “reduced”.
In the case of “1-hexadecyl-2-(4-carboxy)butyl-sn-glycero-3-thiophosphorylcholine [CI-211]”, the Macrophage survival rate ([1]; 2 μg/ml) was 124.7 ± 11.4% and 113.2 ± 7% and 90.4 ± 22.4%, the Macrophage survival rate ([1]; 10 μg/ml) was 111.6 ± 28.8% and 118.4 ± 4.2% and 127.9 ± 11.5% and the LD50 [1] was “above 100 μg/ml and > 167 μM”. The “toxicity at the concentrations used in the IL12/23p40 assay” value [3] was “non-toxic”, the IL12/23p40 secretion [4] was “decreased” and the tyrosine phosphorylation levels [2] was “reduced”.
